In patent US20240166617A1, “PHOSPHOINOSITIDE 3 KINASE BETA INHIBITORS AND COMPOSITIONS AND METHODS THEREOF” (Geode Therapeutics Inc., priority 2021, published 2024):
Like-named read-outs stand apart in the source and are kept apart here.

Legend:
[1] = target: T1, PIK3Cd_h (Homo sapiens, UniProt O00329); experiment: Enzyme binding assay (KINOMEscan); settings: Eurofins DiscoveRx
T1 construct: purchased Eurofins DiscoveRx Corporation
T1 sequence (O00329 1-1044): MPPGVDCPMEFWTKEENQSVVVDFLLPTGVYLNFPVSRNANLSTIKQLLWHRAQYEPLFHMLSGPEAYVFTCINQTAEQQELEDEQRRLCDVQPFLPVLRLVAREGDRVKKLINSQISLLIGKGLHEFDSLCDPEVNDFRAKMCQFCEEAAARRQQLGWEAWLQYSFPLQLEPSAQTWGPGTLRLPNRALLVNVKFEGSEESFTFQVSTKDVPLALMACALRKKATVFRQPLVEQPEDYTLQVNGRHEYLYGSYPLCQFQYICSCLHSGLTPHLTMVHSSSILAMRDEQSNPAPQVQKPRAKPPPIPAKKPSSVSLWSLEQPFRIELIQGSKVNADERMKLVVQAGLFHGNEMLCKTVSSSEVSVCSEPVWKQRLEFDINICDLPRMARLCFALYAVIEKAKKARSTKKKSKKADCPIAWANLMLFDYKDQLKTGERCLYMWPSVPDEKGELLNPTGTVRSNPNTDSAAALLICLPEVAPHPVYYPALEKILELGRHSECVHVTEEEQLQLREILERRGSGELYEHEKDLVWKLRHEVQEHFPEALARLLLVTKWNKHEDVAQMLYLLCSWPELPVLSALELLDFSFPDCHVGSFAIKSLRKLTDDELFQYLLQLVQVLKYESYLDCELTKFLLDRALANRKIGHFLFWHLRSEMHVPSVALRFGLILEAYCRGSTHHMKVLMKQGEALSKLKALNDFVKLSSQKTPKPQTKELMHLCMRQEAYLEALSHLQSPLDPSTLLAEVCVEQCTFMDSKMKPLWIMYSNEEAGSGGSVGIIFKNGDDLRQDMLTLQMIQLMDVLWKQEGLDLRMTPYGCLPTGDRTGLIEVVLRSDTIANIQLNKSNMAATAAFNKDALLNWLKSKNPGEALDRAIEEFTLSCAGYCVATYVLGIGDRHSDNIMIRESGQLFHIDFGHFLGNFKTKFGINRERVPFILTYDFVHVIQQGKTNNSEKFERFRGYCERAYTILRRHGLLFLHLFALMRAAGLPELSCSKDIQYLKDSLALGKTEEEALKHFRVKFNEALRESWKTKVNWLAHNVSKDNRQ
Protocol: (§1) Kinase enzyme binding affinities of compounds disclosed herein were determined using the KINOMEscan technology performed by Eurofins DiscoveRx Corporation, San Diego, California, USA (www.eurofinsdiscoveryservices.com). Table 2 reports the obtained PIK3β Kd values (nM) of, with the PIK3β Kd being the inhibitor binding constant. Table 3 reports the obtained Kd values (nM), with the Kd being the inhibitor binding constant: […]

[2] = target: T2, PIK3Cb_h (Homo sapiens, UniProt P42338); experiment: Enzyme binding assay (KINOMEscan); settings: Eurofins DiscoveRx
T2 construct: purchased Eurofins DiscoveRx Corporation
Protocol: as §1

[3] = target: T3, PIK3Cg_h (Homo sapiens, UniProt P48736); experiment: Enzyme binding assay (KINOMEscan); settings: Eurofins DiscoveRx
T3 construct: purchased Eurofins DiscoveRx Corporation
Protocol: as §1

[4] = target: T4, PIK3Ca_h (Homo sapiens, UniProt P42336); experiment: Enzyme binding assay (KINOMEscan); settings: Eurofins DiscoveRx
T4 construct: purchased Eurofins DiscoveRx Corporation
Protocol: as §1

[5] = system: phosphorylation of AKT in HCC70 cells; experiment: Cellular assay: phosphorylation of AKT in HCC70 cells (western blotting); type: cell-based; settings: Homo sapiens, HCC70, 1 h, HCC70 cells, compound 500 nM, 60 min, inhibition of Akt activity from band intensities
How it was run: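 HCC70 cells treated with compound at 500 nM (0.1% DMSO control) for 60 min at 37 °C; pAKT Ser473 and Thr308 plus total AKT measured by western blot with fluorescent detection. Inhibition from band intensities, binned as + (20–60%), ++ (60–80%), +++ (80–90%), ++++ (>90%).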

T3 sequence (P48736 whole entry): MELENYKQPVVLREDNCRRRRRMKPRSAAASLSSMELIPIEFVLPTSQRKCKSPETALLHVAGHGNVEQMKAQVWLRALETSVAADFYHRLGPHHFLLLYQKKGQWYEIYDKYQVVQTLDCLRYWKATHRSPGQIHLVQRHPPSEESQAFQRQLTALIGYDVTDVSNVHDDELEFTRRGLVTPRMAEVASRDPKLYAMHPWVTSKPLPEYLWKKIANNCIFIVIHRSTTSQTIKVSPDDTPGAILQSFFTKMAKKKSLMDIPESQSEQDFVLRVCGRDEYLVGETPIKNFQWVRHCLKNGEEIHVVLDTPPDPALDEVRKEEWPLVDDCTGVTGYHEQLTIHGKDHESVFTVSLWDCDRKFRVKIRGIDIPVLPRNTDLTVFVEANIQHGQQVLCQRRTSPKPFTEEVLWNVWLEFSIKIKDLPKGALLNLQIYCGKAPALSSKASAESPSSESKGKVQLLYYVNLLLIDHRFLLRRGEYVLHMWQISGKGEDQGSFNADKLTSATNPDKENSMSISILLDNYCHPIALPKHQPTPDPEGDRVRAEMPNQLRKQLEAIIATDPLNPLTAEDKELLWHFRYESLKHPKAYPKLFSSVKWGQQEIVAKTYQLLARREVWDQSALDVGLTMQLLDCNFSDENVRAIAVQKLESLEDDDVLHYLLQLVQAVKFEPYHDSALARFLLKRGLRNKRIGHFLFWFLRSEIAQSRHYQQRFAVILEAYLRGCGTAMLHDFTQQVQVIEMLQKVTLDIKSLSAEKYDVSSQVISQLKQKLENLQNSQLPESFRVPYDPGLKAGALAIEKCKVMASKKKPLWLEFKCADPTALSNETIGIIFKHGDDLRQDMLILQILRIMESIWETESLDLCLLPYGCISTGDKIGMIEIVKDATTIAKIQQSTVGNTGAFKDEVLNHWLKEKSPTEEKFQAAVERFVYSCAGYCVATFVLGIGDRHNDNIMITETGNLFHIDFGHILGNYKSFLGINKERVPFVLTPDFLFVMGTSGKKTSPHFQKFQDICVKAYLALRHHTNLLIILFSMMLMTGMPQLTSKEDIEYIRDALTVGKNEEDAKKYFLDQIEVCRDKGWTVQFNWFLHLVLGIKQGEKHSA
T2 sequence (P42338 whole entry): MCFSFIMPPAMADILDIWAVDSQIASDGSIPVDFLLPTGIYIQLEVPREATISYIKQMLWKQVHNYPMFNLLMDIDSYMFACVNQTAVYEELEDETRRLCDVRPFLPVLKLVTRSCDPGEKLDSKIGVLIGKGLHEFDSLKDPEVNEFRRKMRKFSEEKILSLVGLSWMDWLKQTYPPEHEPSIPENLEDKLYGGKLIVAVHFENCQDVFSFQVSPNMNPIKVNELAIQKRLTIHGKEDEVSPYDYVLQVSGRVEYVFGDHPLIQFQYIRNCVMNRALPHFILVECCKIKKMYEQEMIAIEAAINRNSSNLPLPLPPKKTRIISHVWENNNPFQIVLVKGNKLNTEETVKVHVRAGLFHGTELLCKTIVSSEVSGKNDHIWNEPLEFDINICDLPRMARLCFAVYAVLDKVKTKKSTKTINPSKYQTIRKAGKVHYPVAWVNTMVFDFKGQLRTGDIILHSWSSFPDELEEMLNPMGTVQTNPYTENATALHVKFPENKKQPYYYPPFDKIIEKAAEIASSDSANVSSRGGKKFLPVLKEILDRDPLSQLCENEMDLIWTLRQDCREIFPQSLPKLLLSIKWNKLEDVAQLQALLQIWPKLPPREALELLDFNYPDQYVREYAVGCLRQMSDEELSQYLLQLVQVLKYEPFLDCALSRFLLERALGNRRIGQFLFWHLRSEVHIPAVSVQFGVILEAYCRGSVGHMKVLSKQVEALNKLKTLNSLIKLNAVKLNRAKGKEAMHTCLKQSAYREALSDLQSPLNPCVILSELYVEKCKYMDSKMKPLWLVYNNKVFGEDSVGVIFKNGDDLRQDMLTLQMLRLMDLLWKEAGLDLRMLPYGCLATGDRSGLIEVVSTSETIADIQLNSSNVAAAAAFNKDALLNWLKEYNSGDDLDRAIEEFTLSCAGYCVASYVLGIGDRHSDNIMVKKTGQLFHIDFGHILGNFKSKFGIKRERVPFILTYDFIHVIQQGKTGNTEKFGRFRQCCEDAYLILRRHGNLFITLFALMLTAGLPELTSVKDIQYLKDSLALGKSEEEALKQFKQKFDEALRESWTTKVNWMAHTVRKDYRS
T4 sequence (P42336 whole entry): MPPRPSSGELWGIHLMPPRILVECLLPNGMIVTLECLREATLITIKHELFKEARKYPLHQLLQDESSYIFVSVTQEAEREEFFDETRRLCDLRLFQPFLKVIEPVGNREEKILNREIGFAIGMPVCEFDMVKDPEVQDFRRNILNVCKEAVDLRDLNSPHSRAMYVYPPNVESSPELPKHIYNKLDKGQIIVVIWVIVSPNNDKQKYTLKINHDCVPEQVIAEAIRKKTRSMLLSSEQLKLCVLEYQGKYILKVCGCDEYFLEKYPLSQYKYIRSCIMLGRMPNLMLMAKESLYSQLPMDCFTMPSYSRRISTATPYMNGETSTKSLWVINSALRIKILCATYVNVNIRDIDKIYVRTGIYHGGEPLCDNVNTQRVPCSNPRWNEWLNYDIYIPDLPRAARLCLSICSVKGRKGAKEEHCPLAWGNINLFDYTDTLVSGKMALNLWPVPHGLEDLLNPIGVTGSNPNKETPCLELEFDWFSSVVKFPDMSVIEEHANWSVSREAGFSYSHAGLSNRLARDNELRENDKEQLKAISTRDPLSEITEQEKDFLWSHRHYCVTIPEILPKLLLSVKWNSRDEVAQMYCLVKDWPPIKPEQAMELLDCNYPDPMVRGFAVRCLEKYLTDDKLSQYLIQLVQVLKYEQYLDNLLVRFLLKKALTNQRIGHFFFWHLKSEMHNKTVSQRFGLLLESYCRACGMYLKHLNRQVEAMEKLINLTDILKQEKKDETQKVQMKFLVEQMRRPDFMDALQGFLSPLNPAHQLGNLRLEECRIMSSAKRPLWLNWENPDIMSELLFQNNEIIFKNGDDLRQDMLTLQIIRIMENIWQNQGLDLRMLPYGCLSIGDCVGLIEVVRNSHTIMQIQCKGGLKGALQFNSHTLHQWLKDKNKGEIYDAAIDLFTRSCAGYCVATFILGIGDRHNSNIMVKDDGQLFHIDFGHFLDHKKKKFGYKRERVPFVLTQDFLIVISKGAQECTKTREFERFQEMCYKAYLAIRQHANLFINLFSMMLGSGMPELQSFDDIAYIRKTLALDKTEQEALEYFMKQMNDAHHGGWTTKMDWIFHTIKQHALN

## C[C@@H]1CN(c2cc(=O)c3cc(C(=O)N(C)C)cc(CN4CCc5c(F)cccc54)c3o2)CCO1 [Compound 91, (R)-8-((4-fluoroindolin-1-yl)methyl)-N,N-dimethyl-2-(2-methylmorpholino)-4-oxo-4H-chromene-6-carboxamide]
[1]
  Kd: 7.4 nM
[2]
  Kd: 1 nM
[3]
  Kd: 230 nM
[4]
  Kd: 22 nM
[5]; read-out: Index of AI (HCC70) p-AKT Thr 308
  inhibition at 0.5 µM: > 90%
[5]; read-out: Index of AI (HCC70) p-AKT ser 473
  inhibition at 0.5 µM: > 90%
